Reference: ChEMBL document CHEMBL3112430, “Biological evaluation of new antitumor taxoids: alteration of substitution at the C-7 and C-10 of docetaxel” (2014)
Active and inactive are the calls of the source. No cut-off for these calls is given here.

How the values were obtained:
Type in all cases: functional
[1] = test system: MOLT-4; experiment: Growth inhibition of human MOLT4 cells by MTT assay
[2] = Growth inhibition of human PANC1 cells by MTT assay; conditions: PANC-1
[3] = Growth inhibition of human BGC823 cells by MTT assay; conditions: BGC-823
[4] = test system: K562; experiment: Growth inhibition of human K562 cells by MTT assay
[5] = Growth inhibition of human Bel7402 cells by MTT assay; conditions: Bel-7402
[6] = Growth inhibition of human SGC7901 cells by MTT assay; conditions: SGC-7901
[7] = Growth inhibition of human U937 cells by MTT assay; conditions: U-937
[8] = test system: MCF7; experiment: Growth inhibition of human MCF7 cells by MTT assay
[9] = test system: DU-145; experiment: Growth inhibition of human DU145 cells by MTT assay
[10] = test system: A-431; experiment: Growth inhibition of human A431 cells by MTT assay
[11] = test system: HeLa; experiment: Growth inhibition of human HeLa cells by MTT assay
[12] = test system: Huh-7; experiment: Growth inhibition of human HuH7 cells by MTT assay
[13] = test system: A549; experiment: Growth inhibition of human A549 cells by MTT assay
[14] = (§1) Growth inhibition of human HT1080 cells by MTT assay; conditions: HT-1080
[15] = test system: HL-60; experiment: Growth inhibition of human HL60 cells by MTT assay
[16] = test system: A549; experiment: Ratio of taxol GI50 to compound GI50 for human A549 cells
[17] = test system: HT-1080; experiment: as §1

SMILES	GI50 [1]	GI50 [2]	GI50 [3]	GI50 [4]	GI50 [5]	GI50 [6]	GI50 [7]	GI50 [8]	GI50 [9]	GI50 [10]	GI50 [11]	GI50 [12]	GI50 [13]	GI50 [14]	GI50 [15]	RatioGI50 [16]	GI50 [17]
CC(=O)O[C@H]1C(=O)[C@@]2(C)[C@H]([C@H](OC(=O)c3ccccc3)[C@]3(O)C[C@H](OC(=O)[C@H](O)[C@@H](NC(=O)c4ccccc4)c4ccccc4)C(C)=C1C3(C)C)[C@]1(OC(C)=O)CO[C@@H]1C[C@@H]2O [PACLITAXEL]	2.23 nM	2.41 nM	3.6 nM	7.01 nM	1.79 nM	3.09 nM	2.39 nM	1.29 nM	5.57 nM	2.35 nM	3.21 nM	207 nM	18.7 nM	3.89 nM	–	–	–
COCCO[C@H]1C(=O)[C@]2(C)[C@@H](OCCOC)C[C@H]3OC[C@@]3(OC(C)=O)[C@H]2[C@H](OC(=O)c2ccccc2)[C@]2(O)C[C@H](OC(=O)[C@H](O)[C@@H](NC(=O)OC(C)(C)C)c3ccccc3)C(C)=C1C2(C)C	749 nM	295 nM	2 nM	936 nM	57.3 nM	68.2 nM	38.8 nM	345 nM	982 nM	6.73 nM	407 nM	227 nM	3.1 nM	480 nM	57.9 nM	–	–
CCOCCO[C@H]1C(=O)[C@]2(C)[C@@H](OCCOCC)C[C@H]3OC[C@@]3(OC(C)=O)[C@H]2[C@H](OC(=O)c2ccccc2)[C@]2(O)C[C@H](OC(=O)[C@H](O)[C@@H](NC(=O)OC(C)(C)C)c3ccccc3)C(C)=C1C2(C)C	268 nM	150 nM	816 nM	483 nM	1.56 nM	2.27 nM	1.95 nM	1.19 nM	3.69 nM	2.27 nM	2.53 nM	87.5 nM	1.94 nM	2.83 nM	63.7 nM	9	–
COCO[C@H]1C(=O)[C@]2(C)[C@@H](OCOC)C[C@H]3OC[C@@]3(OC(C)=O)[C@H]2[C@H](OC(=O)c2ccccc2)[C@]2(O)C[C@H](OC(=O)[C@H](O)[C@@H](NC(=O)OC(C)(C)C)c3ccccc3)C(C)=C1C2(C)C	–	1.89 nM	80.5 nM	inactive	661 nM	966 nM	6.15 nM	615 nM	2.09 nM	275 nM	1.24 nM	257 nM	563 nM	–	1230 nM	–	inactive
CO[C@H]1C(=O)[C@]2(C)[C@@H](OC)C[C@H]3OC[C@@]3(OC(C)=O)[C@H]2[C@H](OC(=O)c2ccccc2)[C@]2(O)C[C@H](OC(=O)[C@H](O)[C@@H](NC(=O)OC(C)(C)C)c3ccccc3)C(C)=C1C2(C)C [CABAZITAXEL]	–	1.28 nM	467 nM	4.19 nM	–	0.355 nM	0.539 nM	1.19 nM	1.43 nM	1.48 nM	1.8 nM	–	1.48 nM	1.41 nM	4.74 nM	–	–
CC(=O)O[C@@]12CO[C@@H]1C[C@H](OCCO)[C@@]1(C)C(=O)[C@H](OCCO)C3=C(C)[C@@H](OC(=O)[C@H](O)[C@@H](NC(=O)OC(C)(C)C)c4ccccc4)C[C@@](O)([C@@H](OC(=O)c4ccccc4)[C@H]21)C3(C)C	–	296 nM	128 nM	470 nM	56 nM	92.5 nM	7.41 nM	7.41 nM	413 nM	38.5 nM	6.65 nM	113 nM	6.76 nM	472 nM	118 nM	–	–
CC(=O)O[C@@]12CO[C@@H]1C[C@H](OC(=O)C(C)(CO)CO)[C@@]1(C)C(=O)[C@H](OC(=O)C(C)(CO)CO)C3=C(C)[C@@H](OC(=O)[C@H](O)[C@@H](NC(=O)OC(C)(C)C)c4ccccc4)C[C@@](O)([C@@H](OC(=O)c4ccccc4)[C@H]21)C3(C)C	263 nM	170 nM	984 nM	554 nM	11.9 nM	558 nM	198 nM	130 nM	65.1 nM	1.25 nM	225 nM	104 nM	159 nM	166 nM	376 nM	–	–
